Reference: PubChem BioAssay AID296 (DTP/NCI, 2004)
Records with an inconclusive call do not appear.

Tested on: MX-1 breast xenograft, nude mice, tumor weight T/C
Test: NCI In Vivo Anticancer Drug Screen. Data for tumor model Human Mammary Carcinoma MX-1 Xenograft (intrarenal inoculation) in NU/NU Swiss (nude) mice
Conditions: endpoint: mean tumor weight change, higher = larger tumour
Method in brief: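 Activity is given as a ratio, with each measurement in the compound-treated arm divided by the matching measurement in vehicle-dosed controls. Tumour size or survival serves as the measured parameter.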

[1] = dose: 300.0 mg/kg/injection, schedule: Q04DX003 (sc), vehicle: Klucel (hydroxypropylcellulose) (HPC)
[2] = dose: 600.0 mg/kg/injection, schedule: Q04DX003 (sc), vehicle: Klucel (hydroxypropylcellulose) (HPC)
[3] = dose: 1200.0 mg/kg/injection, schedule: Q04DX003 (sc), vehicle: Klucel (hydroxypropylcellulose) (HPC)
[4] = dose: 25.0 mg/kg/injection, schedule: Q01DX010 (sc), vehicle: saline with Tween-80
[5] = dose: 50.0 mg/kg/injection, schedule: Q01DX010 (sc), vehicle: saline with Tween-80

C=C(C(=O)O)C(N)C(=O)O (stereo not drawn)
T/C (dose: 300.0 mg/kg/injection, schedule: Q04DX003 (sc), vehicle: suspension in saline): 96 % of control | T/C (dose: 600.0 mg/kg/injection, schedule: Q04DX003 (sc), vehicle: suspension in saline): 78 % of control | T/C (dose: 1200.0 mg/kg/injection, schedule: Q04DX003 (sc), vehicle: suspension in saline): 88 % of control

CS(=O)(=O)c1ncc(Br)cn1
T/C (dose: 25.0 mg/kg/injection, schedule: Q01DX010 (sc), vehicle: suspension in saline): 79 % of control | T/C (dose: 75.0 mg/kg/injection, schedule: Q04DX003 (sc), vehicle: saline with Tween-80): 98 % of control | T/C (dose: 150.0 mg/kg/injection, schedule: Q04DX003 (sc), vehicle: saline with Tween-80): 121 % of control | T/C (dose: 300.0 mg/kg/injection, schedule: Q04DX003 (sc), vehicle: saline with Tween-80): 119 % of control

O=NN(CCCl)C(=O)Oc1cc(Cl)c(Cl)cc1Cl
T/C [1]: 64 % of control | T/C [2]: 35 % of control | T/C [3]: 21 % of control | T/C (dose: 2400.0 mg/kg/injection, schedule: Q04DX003 (sc), vehicle: Klucel (hydroxypropylcellulose) (HPC)): 33 % of control

CC(C)=CC(=O)OC1C2C(C)=CC(=O)C(O)C2(C)C2C3(O)OCC24C(CC(=O)OC14)C(C)C3O (stereo not drawn)
T/C (dose: 1.25 mg/kg/injection, schedule: Q04DX003 (sc), vehicle: distilled water + Tween-80): 41 % of control | T/C (dose: 2.5 mg/kg/injection, schedule: Q04DX003 (sc), vehicle: distilled water + Tween-80): 82 % of control | T/C (dose: 5.0 mg/kg/injection, schedule: Q04DX003 (sc), vehicle: distilled water + Tween-80): 71 % of control | T/C (dose: 10.0 mg/kg/injection, schedule: Q04DX003 (sc), vehicle: distilled water + Tween-80): 88 % of control

COc1ccc2nc3cc(Cl)ccc3c(NCCNCCNCCNc3c4ccc(Cl)cc4nc4ccc(OC)cc34)c2c1
T/C [4]: 74 % of control | T/C [5]: 78 % of control | T/C (dose: 100.0 mg/kg/injection, schedule: Q01DX010 (sc), vehicle: saline with Tween-80): 115 % of control | T/C (dose: 200.0 mg/kg/injection, schedule: Q01DX010 (sc), vehicle: saline with Tween-80): 80 % of control

C=C(OP(=O)(OC)OC)Sc1ccccc1C
T/C (dose: 0.2 mg/kg/injection, schedule: Q04DX003 (sc), vehicle: Klucel (hydroxypropylcellulose) (HPC)): 65 % of control | T/C (dose: 0.4 mg/kg/injection, schedule: Q04DX003 (sc), vehicle: Klucel (hydroxypropylcellulose) (HPC)): 67 % of control

CC12CCC3C(CCC4CC(OC(=O)Cc5ccc(N(CCCl)CCCl)cc5)CCC43C)C1CCC(=O)N2 (stereo not drawn)
T/C (dose: 25.0 mg/kg/injection, schedule: Q04DX003 (sc), vehicle: saline with Tween-80): 3 % of control | T/C (dose: 400.0 mg/kg/injection, schedule: Q04DX003 (sc), vehicle: saline with Tween-80): -82 % of control

CC(C)(C)c1ccc(CN2CCN(C(c3ccccc3)c3ccc(Cl)cc3)CC2)cc1 (stereo not drawn)
T/C (dose: 4.5 mg/kg/injection, schedule: Q01DX010 (sc), vehicle: Klucel (hydroxypropylcellulose) (HPC)): 96 % of control | T/C (dose: 9.0 mg/kg/injection, schedule: Q01DX010 (sc), vehicle: Klucel (hydroxypropylcellulose) (HPC)): 101 % of control | T/C (dose: 18.0 mg/kg/injection, schedule: Q01DX010 (sc), vehicle: Klucel (hydroxypropylcellulose) (HPC)): 117 % of control | T/C (dose: 36.0 mg/kg/injection, schedule: Q01DX010 (sc), vehicle: Klucel (hydroxypropylcellulose) (HPC)): 101 % of control | T/C [1]: 102 % of control | T/C [2]: 106 % of control | T/C [3]: 100 % of control

CC(=O)OCC1OC(n2cc(CBr)nn2)C(OC(C)=O)C(OC(C)=O)C1OC(C)=O (stereo not drawn)
T/C (dose: 12.5 mg/kg/injection, schedule: Q01DX010 (sc), vehicle: saline with Tween-80): 106 % of control | T/C [4]: 117 % of control | T/C [5]: 117 % of control

COc1ccc(C[C@H](N)C(=O)NC2C(CO)OC(n3cnc4c(N(C)C)ncnc43)C2O)cc1 (stereo partly drawn)
T/C (dose: 100.0 mg/kg/injection, schedule: Q04DX003 (sc), vehicle: saline): 102 % of control | T/C (dose: 200.0 mg/kg/injection, schedule: Q04DX003 (sc), vehicle: saline): 99 % of control

OCC1OC(n2cnc3c2NC=NC[C@H]3O)CC1O (stereo partly drawn)
T/C (dose: 1.0 mg/kg/injection, schedule: Q01DX010 (sc), vehicle: water): 124 % of control | T/C (dose: 2.0 mg/kg/injection, schedule: Q01DX010 (sc), vehicle: water): 41 % of control | T/C (dose: 8.0 mg/kg/injection, schedule: Q01DX010 (sc), vehicle: water): 28 % of control
